RP-LC retention time data for 79 compounds are collected here from the METLIN SMRT retention time set (Domingo-Almenara et al. 2019).

The nature of the data set: gradient 5% acetonitrile 3 min, to 50% in 2 min, to 85% in 15 min, held 3 min, 100 µL/min. As to conditions: column: Zorbax Extend-C18 2.1 x 50 mm; eluents: water / acetonitrile, 0.1% formic acid. In a few lines:
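Pure standards were run in mixtures of ~100 molecules by HPLC coupled to a quadrupole time-of-flight mass spectrometer. The column was a Zorbax Extend-C18 (2.1 × 50 mm, 1.8 μm) at 100 μL/min, with water and acetonitrile each containing 0.1% formic acid, in positive and negative ionization mode. Dead and dwell volumes were 40 μL and 900 μL. Retention time was taken from computationally picked adduct peaks, each manually inspected, with data collected over 3 months.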
Turning to `CCNc1nc(NCC)n2c(SCC(=O)c3cccc(Br)c3)nnc2n1`, the RP-LC retention time stood at 680 s.

On to `CCc1cc(C2CCCN2C(=O)Nc2ccc(OC)cc2OC)on1` (centres undefined), for which the RP-LC retention time worked out at 829 s. Compound `Cc1cc(-c2ccc(N3C(=O)CC4(CCCC4)C3=O)c(C)c2)ccc1N1C(=O)CC2(CCCC2)C1=O` registered an RP-LC retention time of 1170 s.

Regarding `CCCS(=O)(=O)N1CC[C@@H]2CN(Cc3ccccc3)[C@@H]2C1`, the RP-LC retention time is 607 s. In the case of `CCCS(=O)(=O)N1CCCN(C2=NS(=O)(=O)C(c3ccccc3)=C2C)CC1`, the RP-LC retention time was 839 s. For `O=c1n(Cc2cc(F)cc(F)c2)nc2c(S(=O)(=O)N3CCc4ccccc4C3)cccn12`, the RP-LC retention time was 966 s. The figure for `Cc1c(C(=O)N2CCCC2)cnn1-c1ccc(-c2nc(C(C)(C)C)no2)cn1` is 1010 s; for `CCOCCCNC(=O)C1CCN(C2=NS(=O)(=O)C(c3ccc(C)c(C)c3)=C2C)CC1` it is 786 s. Take `CC1CCCN(CCCNC(=O)Cn2c3ccccc3c3cnn(C)c(=O)c32)C1` (centres undefined): the RP-LC retention time amounted to 612 s. As for `COc1cccc(C(=O)NC2CCN(c3cc(C)cc(C)c3)C2=O)c1` (centres undefined), the RP-LC retention time is 876 s.

`CC1CCN(C(=O)c2ccc3ncnc(N4CCCC4)c3c2)CC1` registered an RP-LC retention time of 619 s. Compound `COc1ccccc1-n1ccnc(NC(=O)Nc2cccc(F)c2)c1=O` returned an RP-LC retention time of 919 s. `CC(NC(=O)CCCc1ccccc1)C(=O)N1CCN(c2ccccn2)CC1` (centres undefined) returned an RP-LC retention time of 626 s.

Compound `O=C(CN1CCC(COCc2ccccc2)CC1)Nc1ccc2c(c1)OCCO2` gave an RP-LC retention time of 605 s. Compound `CCN1C(=O)COc2ccc(-c3nc(NC(=O)c4cccc(C)c4)sc3C)cc21` had an RP-LC retention time of 682 s.

`Cc1ccc2oc(SCc3noc(CCC(=O)Nc4nc(-c5ccccc5)cs4)n3)nc2c1` showed an RP-LC retention time of 1130 s.

On to `O=C(CCn1c(=O)oc2ccccc21)Nc1nc(-c2ccccc2)cs1`, for which the RP-LC retention time came to 961 s. `O=C(c1cc(-c2ccncc2)n[nH]1)N1CCC(C(=O)N2CCc3ccccc3C2)CC1` showed an RP-LC retention time of 614 s.

The compound `O=C(Cn1ccn2nc(-c3ccccc3)c(CO)c2c1=O)N1CCc2ccccc21` showed an RP-LC retention time of 848 s. The figure for `N#Cc1ccc(NC(=O)C(=O)c2ccc[nH]2)cc1` is 801 s. For `Cc1cc(OCc2nc(C)c(C(=O)Nc3nc(-c4ccccc4)cs3)s2)ccc1Cl` the value was 1330 s; for `CC(C)CN(CC(C)C)c1nc(-c2ccccc2)nc2ccccc12`, 951 s; for `Cc1cc(C(=O)N2CCCCC2)c2c(=O)n(CC(=O)NC3CCCCC3)c(=O)n(C)c2n1`, 786 s.

The compound `O=C(CC1CCN(C(=O)c2ccc3oc(-c4ccccc4)nc3c2)CC1)NCCN1CCOCC1` registered an RP-LC retention time of 630 s. `COc1cccc(-c2noc(N3CCN(c4ccccn4)CC3)n2)c1` had an RP-LC retention time of 678 s. For the compound `O=C(Nc1ccc(F)c(Cl)c1)C1CCN(C(=O)c2ncn3c2COC(c2ccccc2)C3)CC1` (centres undefined), the RP-LC retention time is 864 s. Compound `O=C(Nc1cccc(F)c1)N1CCCC(Cn2c(C3CC3)nc3cccnc32)C1` (centres undefined) came in with an RP-LC retention time of 676 s. For `COc1cc([N+](=O)[O-])cc2sc(NC(=O)c3cc(=O)c4ccccc4o3)nc12`, the RP-LC retention time was 877 s. The figure for `Cc1nc(-c2ccc(OC3CCN(C(=O)NC(C)C)C3)cc2)no1` (centres undefined) is 730 s. For `Cc1cc2c(OCC(CNC(C)(C)C)OC(=O)c3ccccc3)cccc2[nH]1` (centres undefined) the value was 799 s; for `Clc1ccc(-c2csc(N3CCN(c4nc(-c5ccccc5)cs4)CC3)n2)cc1`, 739 s. Compound `Cc1ccsc1C(=O)Nc1ccc(Cn2cncn2)cc1` showed an RP-LC retention time of 695 s. For `O=C1[C@H]2CN(Cc3ccc(Cl)cc3)C[C@H]2C(=O)N1CCc1ccccc1`, the RP-LC retention time was found to be 749 s. In the case of `Cc1ccc(NC(=O)N2CCc3c(c(-c4nc(C)no4)nn3C)C2)c(C)c1`, the RP-LC retention time worked out at 762 s. As to `Cc1ccc(S(=O)(=O)N2CCC(CCC(=O)NC3CC3)CC2)cc1`, the RP-LC retention time was 789 s.

For the compound `O=S(=O)(Cc1nc(-c2ccc(Br)cc2)no1)c1ccccc1`, the RP-LC retention time was 1040 s.

Compound `O=C(NCCN1CCCc2ccccc21)C1CCCN(c2ncnc3c2nc2n3CCCCC2)C1` (centres undefined) gave an RP-LC retention time of 877 s. Consider `CCc1nnc(-c2ccc3ccn(CC(=O)NCc4ccc(N(C)C)cc4)c3c2)o1`, for which the RP-LC retention time came out at 640 s. Compound `C[C@@H](C(=O)O)c1ccc(-c2ccccc2)c(F)c1` registered an RP-LC retention time of 974 s. `Cc1ccc(-n2nc3c(=O)n(CCCC(=O)NC4CC4)nc(C)c3c2C)cc1` displayed an RP-LC retention time of 717 s. Regarding `Cc1cc2nn(CC(=O)N3CCCC3)c(=O)n2c(-c2ccc(C(F)(F)F)cc2)n1`, the RP-LC retention time was 774 s.

Compound `COCC(=O)Nc1ccc(N2CCN(C3CCCCC3)CC2)cc1C(=O)O` came in with an RP-LC retention time of 603 s. For `CCCN1C(=O)COc2ccc(-c3noc(-c4ccc(CS(=O)(=O)c5ccccc5)cc4)n3)cc21` the value was 1130 s; for `Cc1csc(-c2cc(S(=O)(=O)NCCCN3CCCc4ccccc43)c(C)s2)n1`, 1420 s. For `O=C(Cn1nc(C(=O)N2CCCC2)c2ccccc21)NC1CCCC1` the value was 758 s.

On to `Cc1cc(C)c2nc(-c3ccccc3Br)cc(C(=O)O)c2c1`, for which the RP-LC retention time was found to be 1130 s. The compound `CCN(c1ccccc1C)S(=O)(=O)c1cc(-c2[nH]ncc2C(=O)N2CCCC2)oc1C` displayed an RP-LC retention time of 819 s. As to `CCc1ccccc1NC(=O)N1CCCC1c1nc(-c2ccc(OC)cc2)no1` (centres undefined), the RP-LC retention time came out at 976 s.

`Cc1nc(Cn2cccc2C(=O)N2CCN(c3cccc(Cl)c3)CC2)no1` returned an RP-LC retention time of 974 s. For `O=C(Nc1ccccc1)N(Cc1cccnc1)C1CN(Cc2ccc(F)c(F)c2)C1`, the RP-LC retention time stood at 965 s. For `COc1ccc(NC(=O)N2C[C@@H](F)C[C@H]2C(=O)N2CCCCC2)cc1` the value was 664 s; for `COc1ccc(-c2noc(C3CCCN3C(=O)c3ccc(C)cc3)n2)cc1` (centres undefined), 1010 s. With `CCCCN(C)C(=O)c1ccc2c(c1)N(CCC)C(=O)C1CCC(=O)N21` (centres undefined), the RP-LC retention time was 759 s. Consider `CNC(=O)c1n[nH]c2c1CCCCCC2`, for which the RP-LC retention time was 685 s.

Turning to `O=C(C1CCN(c2nc3cccnc3s2)CC1)N1CCCCC1`, the RP-LC retention time amounted to 713 s. `Cc1ccc(NC(=O)Cn2nc(C)cc2C(=O)Nc2cc(C)ccc2C)cc1` registered an RP-LC retention time of 981 s. With `Cc1cccc(C)c1Nc1c(-c2cc(Br)ccc2O)nc2ncccn12`, the RP-LC retention time was 1090 s.

As for `O=c1oc2cc(O)ccc2cc1-c1ccc(F)cc1`, the RP-LC retention time turned out to be 852 s. Regarding `CCC(=O)Nc1ccc(SCc2nnc(-c3ccccc3)o2)cc1`, the RP-LC retention time amounted to 811 s. `COc1ccc(CC(=O)Nc2ccc3ncnc(N4CCCC4)c3c2)cc1Cl` showed an RP-LC retention time of 680 s. The compound `O=C(NCc1ccccc1)c1c(O)c2cccnc2n(Cc2ccccc2)c1=O` gave an RP-LC retention time of 1370 s. For `COc1c(OP2(=S)OCC(C)(C)CO2)cnn(C2CCCCC2)c1=O` the value was 1190 s; for `CCc1cc(=O)n(CC(=O)Nc2cccc(F)c2)c(N2CCOCC2)n1`, 763 s. Consider `C=CCN1CC(=O)N2Cc3[nH]c4ccccc4c3C[C@H]2C1=O`, for which the RP-LC retention time stood at 708 s. As to `Cc1ccc(CNC(=O)c2nnc(-c3ccc(S(=O)(=O)N4CCCCC4)cc3)o2)o1`, the RP-LC retention time worked out at 952 s. Compound `Cn1c(CCNC(=O)c2cccc(F)c2)nc2cccnc21` registered an RP-LC retention time of 611 s. On to `O=C1CC(c2ccccc2)N(S(=O)(=O)c2cccc3nsnc23)CCCCCN1` (centres undefined), for which the RP-LC retention time amounted to 848 s. The compound `CCCN(C(=O)Cc1ccc(OC)cc1)c1nc(-c2ccccc2)cs1` showed an RP-LC retention time of 1420 s. With `Cc1nc(C)c(C(=O)N2CC(F)(F)C[C@H]2COc2ccc3c(c2)CCC3)s1`, the RP-LC retention time was determined as 1080 s. `Cc1ccccc1CNC(=O)C1(C)CCCN(C(=O)NCCc2ccccc2)C1` (centres undefined): the RP-LC retention time amounted to 897 s. For `CCn1nc(CNC(=O)Cc2cccc(F)c2)c2ccccc21` the value was 764 s. In the case of `O=C(NC1CC1)c1ccc(OCC2CCN(C(=O)Cc3ccccc3F)CC2)cc1`, the RP-LC retention time came out at 803 s.

For the compound `CCc1sc(NC(=O)Cc2csc(C)n2)nc1-c1ccc(Br)cc1`, the RP-LC retention time came out at 1080 s. As to `CC1(C(=O)NCc2ccccc2)CN(S(C)(=O)=O)CC(=O)N1CCCc1ccccc1` (centres undefined), the RP-LC retention time was determined as 856 s. The figure for `CCOC(=O)c1ccc(NS(=O)(=O)c2cc3n(c2)CCN(CC)C3=O)cc1` is 744 s; for `CCC(c1cccs1)N1C(=O)[C@H]2CN(S(=O)(=O)c3ccccc3C)C[C@H]2C1=O` (some centres undefined) it is 1020 s; for `CN1C(=O)C(C)(C)c2cc(S(=O)(=O)N(C)CC(=O)N3CCN(c4ccccn4)CC3)ccc21` it is 610 s. Take `O=C(NCCc1ccncc1)c1ccc2c(c1)ncn2-c1ccccc1`: the RP-LC retention time is 550 s.

For the compound `Cn1cnc2ccc(-c3noc(-c4cccc(NC(=O)c5ccco5)c4)n3)cc21`, the RP-LC retention time was 682 s.
